This is an account of results in paper PMC6120666 (The EMBO Journal, 2018).

Test in all cases: Drug affinity chromatography with c-ponatinib and LC-MS/MS (ponatinib interactome)
Holding throughout (format): binding

Assay [1] concerns the target T1, proteins of U2OS cell lysate (Homo sapiens, UniProt Q00536).
T1 construct: Proteins enriched by c-ponatinib from U2OS cell lysate; endogenous in cells; host or cells: U2OS cell lysate
As to conditions: CDK16, Cyclin-dependent kinase 16. The procedure, abridged:
(§1)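 Proteins were identified by nano-UPLC–MS/MS after elution with formic acid and trypsin digestion. They were captured from U2OS lysate (2 mg protein per pulldown, NP-40 buffer) on amine-coupled NHS beads during a 2 h incubation at 4 °C.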

Assay [2] concerns the target T2, proteins of U2OS cell lysate (Homo sapiens, UniProt P40939).
T2 construct: Proteins enriched by c-ponatinib from U2OS cell lysate; endogenous in cells; host or cells: U2OS cell lysate
Particulars: HADHA, Trifunctional enzyme subunit alpha, mitochondrial. A digest of the protocol: as §1

Assay [3] deals with T3, proteins of U2OS cell lysate (Homo sapiens, UniProt Q15021).
T3 construct: Proteins enriched by c-ponatinib from U2OS cell lysate; endogenous in cells; host or cells: U2OS cell lysate
Particulars: NCAPD2, Condensin complex subunit 1. The procedure, abridged: as §1

Assay [4] has as its target T4, proteins of U2OS cell lysate (Homo sapiens, UniProt P07305).
T4 construct: Proteins enriched by c-ponatinib from U2OS cell lysate; endogenous in cells; host or cells: U2OS cell lysate
Particulars: H1F0, Histone H1.0. A digest of the protocol: as §1

Assay [5] has as its target T5, proteins of U2OS cell lysate (Homo sapiens, UniProt P00403).
T5 construct: Proteins enriched by c-ponatinib from U2OS cell lysate; endogenous in cells; host or cells: U2OS cell lysate
As to conditions: MT-CO2, Cytochrome c oxidase subunit 2. A digest of the protocol: as §1

Assay [6] deals with T6, proteins of U2OS cell lysate (Homo sapiens, UniProt Q01650).
T6 construct: Proteins enriched by c-ponatinib from U2OS cell lysate; endogenous in cells; host or cells: U2OS cell lysate
Particulars: SLC7A5, Large neutral amino acids transporter small subunit 1. A digest of the protocol: as §1

In assay [7] the target is T7, proteins of U2OS cell lysate (Homo sapiens, UniProt P62249).
T7 construct: Proteins enriched by c-ponatinib from U2OS cell lysate; endogenous in cells; host or cells: U2OS cell lysate
Particulars: RPS16, 40S ribosomal protein S16. The procedure, abridged:
as §1

For assay [8], the target named is T8, proteins of U2OS cell lysate (Homo sapiens, UniProt P07814).
T8 construct: Proteins enriched by c-ponatinib from U2OS cell lysate; endogenous in cells; host or cells: U2OS cell lysate
As to conditions: EPRS, Bifunctional glutamate/proline--tRNA ligase. The procedure, abridged: as §1

For assay [9], the target named is T9, proteins of U2OS cell lysate (Homo sapiens, UniProt P09382).
T9 construct: Proteins enriched by c-ponatinib from U2OS cell lysate; endogenous in cells; host or cells: U2OS cell lysate
As to conditions: LGALS1, Galectin-1. The procedure, abridged:
as §1

The target of assay [10] is T10, proteins of U2OS cell lysate (Homo sapiens, UniProt P09038).
T10 construct: Proteins enriched by c-ponatinib from U2OS cell lysate; endogenous in cells; host or cells: U2OS cell lysate
Particulars: FGF2, Fibroblast growth factor 2. A digest of the protocol: as §1

Assay [11] addresses T11, proteins of U2OS cell lysate (Homo sapiens, UniProt O43707).
T11 construct: Proteins enriched by c-ponatinib from U2OS cell lysate; endogenous in cells; host or cells: U2OS cell lysate
Particulars: ACTN4, Alpha-actinin-4. The procedure, abridged: as §1

In assay [12] the target is T12, proteins of U2OS cell lysate (Homo sapiens, UniProt P61247).
T12 construct: Proteins enriched by c-ponatinib from U2OS cell lysate; endogenous in cells; host or cells: U2OS cell lysate
As to conditions: RPS3A, 40S ribosomal protein S3a. A digest of the protocol: as §1

Assay [13] addresses T13, proteins of U2OS cell lysate (Homo sapiens, UniProt Q13268).
T13 construct: Proteins enriched by c-ponatinib from U2OS cell lysate; endogenous in cells; host or cells: U2OS cell lysate
Particulars: DHRS2, Dehydrogenase/reductase SDR family member 2, mitochondrial. A digest of the protocol: as §1

Assay [14] deals with T14, proteins of U2OS cell lysate (Homo sapiens, UniProt P62851).
T14 construct: Proteins enriched by c-ponatinib from U2OS cell lysate; endogenous in cells; host or cells: U2OS cell lysate
Particulars: RPS25, 40S ribosomal protein S25. A digest of the protocol:
as §1

Assay [15] has as its target T15, proteins of U2OS cell lysate (Homo sapiens, UniProt Q13163).
T15 construct: Proteins enriched by c-ponatinib from U2OS cell lysate; endogenous in cells; host or cells: U2OS cell lysate
As to conditions: MAP2K5, Dual specificity mitogen-activated protein kinase kinase 5. The procedure, abridged: as §1

Assay [16] has as its target T16, proteins of U2OS cell lysate (Homo sapiens, UniProt P62316).
T16 construct: Proteins enriched by c-ponatinib from U2OS cell lysate; endogenous in cells; host or cells: U2OS cell lysate
Particulars: captured protein SNRPD2, Rank 185. A digest of the protocol: as §1

Assay [17] concerns the target T17, proteins of U2OS cell lysate (Homo sapiens, UniProt Q9HAV4).
T17 construct: Proteins enriched by c-ponatinib from U2OS cell lysate; endogenous in cells; host or cells: U2OS cell lysate
Particulars: captured protein XPO5, Rank 207. The procedure, abridged:
as §1

Assay [18] addresses T18, proteins of U2OS cell lysate (Homo sapiens, UniProt P09493).
T18 construct: Proteins enriched by c-ponatinib from U2OS cell lysate; endogenous in cells; host or cells: U2OS cell lysate
Particulars: captured protein TPM1, Rank 202. The procedure, abridged:
as §1

Assay [19] concerns the target T19, proteins of U2OS cell lysate (Homo sapiens, UniProt P62826).
T19 construct: Proteins enriched by c-ponatinib from U2OS cell lysate; endogenous in cells; host or cells: U2OS cell lysate
As to conditions: captured protein RAN, Rank 147. The procedure, abridged:
as §1

T13 sequence (Q13268 24-280): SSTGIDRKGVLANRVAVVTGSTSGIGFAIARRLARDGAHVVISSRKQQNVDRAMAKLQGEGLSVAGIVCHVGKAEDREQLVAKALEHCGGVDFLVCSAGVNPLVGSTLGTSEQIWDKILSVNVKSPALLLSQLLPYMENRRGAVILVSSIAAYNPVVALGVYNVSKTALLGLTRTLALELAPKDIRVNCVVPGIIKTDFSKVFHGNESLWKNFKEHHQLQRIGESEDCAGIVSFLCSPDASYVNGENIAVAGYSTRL
T5 sequence (P00403 whole entry): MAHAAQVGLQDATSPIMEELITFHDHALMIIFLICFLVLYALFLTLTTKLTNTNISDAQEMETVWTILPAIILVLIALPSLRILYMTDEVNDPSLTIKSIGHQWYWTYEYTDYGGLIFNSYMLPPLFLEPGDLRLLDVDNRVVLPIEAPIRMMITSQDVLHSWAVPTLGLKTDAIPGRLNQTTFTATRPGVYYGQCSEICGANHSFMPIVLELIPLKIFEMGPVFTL
T9 sequence (P09382 whole entry): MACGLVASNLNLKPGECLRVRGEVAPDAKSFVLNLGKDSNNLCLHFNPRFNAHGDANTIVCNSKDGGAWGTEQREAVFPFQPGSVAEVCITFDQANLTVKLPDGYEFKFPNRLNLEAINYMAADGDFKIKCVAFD
T1 sequence (Q00536 whole entry): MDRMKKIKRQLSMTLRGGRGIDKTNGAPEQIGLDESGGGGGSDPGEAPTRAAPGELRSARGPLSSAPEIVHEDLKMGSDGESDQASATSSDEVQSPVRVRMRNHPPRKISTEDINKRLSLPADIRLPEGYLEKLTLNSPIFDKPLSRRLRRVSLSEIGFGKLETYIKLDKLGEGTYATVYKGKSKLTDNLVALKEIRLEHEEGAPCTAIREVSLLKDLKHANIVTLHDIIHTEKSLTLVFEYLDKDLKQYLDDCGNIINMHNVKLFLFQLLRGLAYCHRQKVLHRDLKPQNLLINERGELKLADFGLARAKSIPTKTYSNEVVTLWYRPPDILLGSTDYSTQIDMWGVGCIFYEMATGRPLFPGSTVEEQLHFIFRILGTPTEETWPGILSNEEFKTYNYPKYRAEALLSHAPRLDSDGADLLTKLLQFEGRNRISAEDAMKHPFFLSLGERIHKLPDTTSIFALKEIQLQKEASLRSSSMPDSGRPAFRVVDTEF
T11 sequence (O43707 whole entry): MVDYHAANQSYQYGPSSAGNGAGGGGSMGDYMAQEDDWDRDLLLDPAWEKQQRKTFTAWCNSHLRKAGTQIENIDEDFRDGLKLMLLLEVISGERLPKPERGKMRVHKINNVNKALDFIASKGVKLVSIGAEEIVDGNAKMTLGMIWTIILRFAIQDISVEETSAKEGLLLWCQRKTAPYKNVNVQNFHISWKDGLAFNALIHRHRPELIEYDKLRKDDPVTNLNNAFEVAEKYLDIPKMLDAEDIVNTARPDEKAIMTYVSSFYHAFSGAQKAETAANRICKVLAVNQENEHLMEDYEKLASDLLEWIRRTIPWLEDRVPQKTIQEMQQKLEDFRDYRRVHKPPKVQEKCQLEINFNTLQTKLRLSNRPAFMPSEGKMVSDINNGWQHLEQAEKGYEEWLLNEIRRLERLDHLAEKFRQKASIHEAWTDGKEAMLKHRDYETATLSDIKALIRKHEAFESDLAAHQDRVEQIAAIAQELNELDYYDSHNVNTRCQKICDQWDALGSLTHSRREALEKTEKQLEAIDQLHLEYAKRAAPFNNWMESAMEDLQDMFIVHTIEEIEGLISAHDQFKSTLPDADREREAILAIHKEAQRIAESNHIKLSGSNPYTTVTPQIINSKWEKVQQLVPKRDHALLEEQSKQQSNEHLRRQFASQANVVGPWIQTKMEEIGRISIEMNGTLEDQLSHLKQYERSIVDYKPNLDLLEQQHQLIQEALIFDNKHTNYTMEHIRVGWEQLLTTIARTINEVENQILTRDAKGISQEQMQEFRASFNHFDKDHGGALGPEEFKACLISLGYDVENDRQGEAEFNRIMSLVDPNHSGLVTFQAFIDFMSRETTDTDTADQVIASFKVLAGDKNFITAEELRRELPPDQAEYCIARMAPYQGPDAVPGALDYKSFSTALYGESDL
T8 sequence (P07814 whole entry): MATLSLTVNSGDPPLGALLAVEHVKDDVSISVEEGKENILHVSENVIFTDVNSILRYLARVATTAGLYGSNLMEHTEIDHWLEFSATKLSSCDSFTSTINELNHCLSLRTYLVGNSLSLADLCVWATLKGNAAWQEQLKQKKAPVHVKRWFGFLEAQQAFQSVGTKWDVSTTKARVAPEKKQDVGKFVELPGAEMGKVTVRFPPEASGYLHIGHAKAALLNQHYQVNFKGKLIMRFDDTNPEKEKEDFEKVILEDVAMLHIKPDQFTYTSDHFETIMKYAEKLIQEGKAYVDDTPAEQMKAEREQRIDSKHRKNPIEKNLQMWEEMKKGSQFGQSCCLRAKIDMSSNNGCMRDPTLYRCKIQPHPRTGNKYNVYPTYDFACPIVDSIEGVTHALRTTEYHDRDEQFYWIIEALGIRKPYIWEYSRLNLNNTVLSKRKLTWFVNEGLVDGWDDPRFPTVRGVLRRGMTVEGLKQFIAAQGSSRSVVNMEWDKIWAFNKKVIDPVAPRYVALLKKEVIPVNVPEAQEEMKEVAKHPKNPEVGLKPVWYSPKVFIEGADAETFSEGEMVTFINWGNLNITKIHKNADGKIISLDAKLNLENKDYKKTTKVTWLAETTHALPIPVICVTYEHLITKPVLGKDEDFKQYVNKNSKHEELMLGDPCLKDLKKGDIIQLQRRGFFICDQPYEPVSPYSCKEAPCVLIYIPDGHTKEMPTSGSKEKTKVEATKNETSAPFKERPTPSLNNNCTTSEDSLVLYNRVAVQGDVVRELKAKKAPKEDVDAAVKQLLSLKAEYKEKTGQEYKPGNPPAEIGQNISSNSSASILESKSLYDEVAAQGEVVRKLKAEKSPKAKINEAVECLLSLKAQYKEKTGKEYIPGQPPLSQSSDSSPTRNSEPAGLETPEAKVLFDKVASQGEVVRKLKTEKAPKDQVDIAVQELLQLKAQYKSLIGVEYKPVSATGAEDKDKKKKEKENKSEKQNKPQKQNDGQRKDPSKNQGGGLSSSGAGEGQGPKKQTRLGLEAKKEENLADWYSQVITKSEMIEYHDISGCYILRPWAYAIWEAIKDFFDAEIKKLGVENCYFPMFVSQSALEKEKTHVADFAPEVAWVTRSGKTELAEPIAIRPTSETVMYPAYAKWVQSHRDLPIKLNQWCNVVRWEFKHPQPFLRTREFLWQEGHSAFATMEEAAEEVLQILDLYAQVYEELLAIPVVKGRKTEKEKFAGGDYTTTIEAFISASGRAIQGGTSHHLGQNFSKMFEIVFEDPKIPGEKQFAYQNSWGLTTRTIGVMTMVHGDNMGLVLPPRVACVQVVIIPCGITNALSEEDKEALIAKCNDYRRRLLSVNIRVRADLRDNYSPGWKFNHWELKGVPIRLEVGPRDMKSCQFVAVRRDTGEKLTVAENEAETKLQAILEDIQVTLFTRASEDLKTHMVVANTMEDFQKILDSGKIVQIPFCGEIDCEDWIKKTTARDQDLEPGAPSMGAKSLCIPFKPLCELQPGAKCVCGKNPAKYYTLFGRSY
T15 sequence (Q13163 whole entry): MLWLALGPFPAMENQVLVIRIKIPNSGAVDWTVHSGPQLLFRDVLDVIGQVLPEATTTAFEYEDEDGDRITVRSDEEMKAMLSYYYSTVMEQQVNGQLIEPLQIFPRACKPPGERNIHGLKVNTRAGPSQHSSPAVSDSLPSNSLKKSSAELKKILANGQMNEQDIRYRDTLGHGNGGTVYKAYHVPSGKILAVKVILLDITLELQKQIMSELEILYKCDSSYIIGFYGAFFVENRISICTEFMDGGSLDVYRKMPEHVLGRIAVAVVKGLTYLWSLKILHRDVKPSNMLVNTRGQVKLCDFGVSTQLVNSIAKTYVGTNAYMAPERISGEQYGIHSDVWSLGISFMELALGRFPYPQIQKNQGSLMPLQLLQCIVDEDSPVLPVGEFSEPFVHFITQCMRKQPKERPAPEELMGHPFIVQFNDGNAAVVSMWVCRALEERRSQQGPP
T10 sequence (P09038 143-288): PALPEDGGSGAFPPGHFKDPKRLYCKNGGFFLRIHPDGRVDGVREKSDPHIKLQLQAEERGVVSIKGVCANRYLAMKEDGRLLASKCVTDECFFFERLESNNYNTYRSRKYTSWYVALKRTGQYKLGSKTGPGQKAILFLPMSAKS
T6 sequence (Q01650 whole entry): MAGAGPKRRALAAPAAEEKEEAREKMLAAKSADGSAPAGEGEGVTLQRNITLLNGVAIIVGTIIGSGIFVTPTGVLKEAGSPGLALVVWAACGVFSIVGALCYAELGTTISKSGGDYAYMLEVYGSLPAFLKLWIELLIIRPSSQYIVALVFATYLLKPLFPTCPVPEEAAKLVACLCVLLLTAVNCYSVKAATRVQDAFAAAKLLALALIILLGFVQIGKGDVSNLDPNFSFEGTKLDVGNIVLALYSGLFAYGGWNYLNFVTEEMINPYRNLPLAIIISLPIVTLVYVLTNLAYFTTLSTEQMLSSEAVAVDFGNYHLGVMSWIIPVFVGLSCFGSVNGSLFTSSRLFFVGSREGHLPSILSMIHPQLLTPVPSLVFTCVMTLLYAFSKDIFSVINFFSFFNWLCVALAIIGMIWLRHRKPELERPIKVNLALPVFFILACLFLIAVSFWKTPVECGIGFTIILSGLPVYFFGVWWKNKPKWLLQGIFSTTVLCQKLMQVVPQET
T18 sequence (P09493 whole entry): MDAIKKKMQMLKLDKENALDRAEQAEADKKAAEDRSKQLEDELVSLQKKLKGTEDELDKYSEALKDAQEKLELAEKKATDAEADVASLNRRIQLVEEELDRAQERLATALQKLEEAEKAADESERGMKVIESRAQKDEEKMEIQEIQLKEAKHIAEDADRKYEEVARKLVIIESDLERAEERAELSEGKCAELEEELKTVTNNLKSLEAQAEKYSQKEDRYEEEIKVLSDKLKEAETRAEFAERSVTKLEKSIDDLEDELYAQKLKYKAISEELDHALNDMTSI

Consider `Cc1ccc(C(=O)Nc2ccc(CN3CCN(C)CC3)c(C(F)(F)F)c2)cc1C#Cc1cnc2cccnn12` [PON], for which the “Average LFQ PON_WT” value in assay [1] came to 24.4833; in [2], 23.258; in [3] it was 21.331; in assay [4], 21.4215; in [5] it was 20.775; in assay [6], 21.4059. Further, the “Average LFQ PON_WT” value worked out at 20.8259 in assay [7]; 20.1996 in assay [8]; 23.8412 in assay [9]; 20.5832 in [10]; 19.9578 in assay [11]; 21.3119 in [12]. Also, the “Average LFQ PON_WT” value in assay [13] stood at 24.0178; in assay [14], 23.6854; in assay [15] it was 19.6379.

With `Cc1ccc(C(=O)Nc2ccc(CN3CCN(CCCN)CC3)c(C(F)(F)F)c2)cc1C#Cc1cnc2cccnn12` [c-ponatinib, reference compound], the “Average LFQ intensity” value in [16] stood at 22.0908; in assay [17], 21.7615; in [18], 21.8321; in assay [19], 22.7198.
